Assay results reported in PubChem BioAssay (NCI).
Where “and” joins values, the source holds several entries; their conditions need not be identical. Identical values can stand only once.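 Tested at 5 concentrations; 48 h exposure; 96-well plates; endpoints linearly interpolated, else capped at highest concentration. GI50: concentration for 50% inhibition of growth. TGI: total growth inhibition.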

What was measured:
Assay in all cases: growth of human tumour cells (NCI), 48 h
NCI-H460 lung = tested on: NCI-H460 lung
SK-MEL-5 melanoma = tested on: SK-MEL-5 melanoma
OVCAR-3 ovarian = tested on: OVCAR-3 ovarian
KM12 colon = tested on: KM12 colon
NCI-H23 lung = tested on: NCI-H23 lung
TK-10 renal = tested on: TK-10 renal
SK-MEL-2 melanoma = tested on: SK-MEL-2 melanoma
SNB-75 CNS = tested on: SNB-75 CNS
BT-549 breast = tested on: BT-549 breast
MDA-MB-231 breast = tested on: MDA-MB-231 breast

SMILES	TGI (NCI-H460 lung) [µM]	TGI (SK-MEL-5 melanoma)	TGI (OVCAR-3 ovarian) [µM]	TGI (KM12 colon) [µM]	TGI (NCI-H23 lung) [µM]	TGI (TK-10 renal) [µM]	TGI (SK-MEL-2 melanoma) [µM]	TGI (SNB-75 CNS) [µM]	TGI (BT-549 breast) [µM]	TGI (MDA-MB-231 breast) [µM]	GI50 (NCI-H460 lung)	GI50 (SK-MEL-5 melanoma) [µM]	GI50 (OVCAR-3 ovarian) [µM]	GI50 (KM12 colon)	GI50 (NCI-H23 lung)	GI50 (TK-10 renal)	GI50 (SK-MEL-2 melanoma) [µM]	GI50 (SNB-75 CNS)	GI50 (BT-549 breast)	GI50 (MDA-MB-231 breast)
O=P1(c2ccccc2)CCCCC1	> 100	> 100 µM	> 100	> 100	> 100	> 100	> 100	> 100												
COc1cc(C=O)c(-c2cc(OC)c(OC)cc2C=O)cc1OC	> 100	> 100 µM	> 100	> 100	> 100	> 100	> 100	> 100												
N#CC(C(=O)C(=O)Nc1ccc(Cl)cc1)c1ccccc1 (stereo not drawn)	> 100	> 100 µM	> 100	> 100	> 100	> 100	> 100	> 100												
CCOc1ccncc1[N+](=O)[O-]		> 100 µM		> 100	> 100	> 100	> 100	> 100	> 100	> 100										
CC(=O)O[C@H]1CCC2[C@@H]3CCC4Nc5[nH]ncc5C[C@]4(C)C3CC[C@@]21C (stereo partly drawn)	> 100	74.9 µM	> 100	> 100	> 100	> 100	> 100	> 100												
CCCO/S(=N\S(=O)(=O)c1ccccc1)c1ccccc1[N+](=O)[O-] (stereo not drawn)	> 100	> 100 µM	> 100	> 100	> 100		> 100	> 100												
CC(=O)[O][Ga]([Br])[O]C(C)=O	> 100	> 100 µM	> 100	> 100	> 100	> 100	> 100	> 100			> 100 µM	> 100	> 100	> 100 µM	> 100 µM	> 100 µM	> 100	> 100 µM		
O=CN1CCN(CC(O)CN2CCCCC2)CC1 (stereo not drawn)		> 100 µM	> 100	> 100	> 100	> 100	> 100	> 100	> 100	> 100										
CCn1c(=O)c2c(=O)c3c4c(oc3oc2c2ccccc21)C(=O)c1ccccc1C4=O	> 100	> 100 µM	4.51	> 100	> 100	> 100	> 100	> 53.3	> 100		> 100 µM	> 100	0.627	> 100 µM	> 48.9 µM	> 71.5 µM	> 100	> 20.8 µM	> 36 µM	
Cc1nc([N+](=O)[O-])cn1CC(=N)N	> 100	> 100 µM	> 100		> 100	> 100	> 100	> 100												
CN[C@@H](C)[C@@H](NC)c1ccccc1	> 100	> 100 µM	> 100	> 100	> 100	> 100		> 100												
CC(C)N(CCn1c2c3ccccc3ccc2c2oc(=O)c3ccccc3c21)C(C)C	> 100		> 100	> 100	> 100	> 100	> 100	75.9												
CC1COC(C)(C)P(=O)(c2ccccc2)C1 (stereo not drawn)	> 100	> 100 µM	> 100	> 100	> 100	> 100	> 100	> 100												
O=[N+]([O-])c1ccc(N2N=C(c3ccc(NCc4nc5ccccc5[nH]4)cc3)CC2c2ccco2)cc1 (stereo not drawn)	> 100	31.9 µM	80.2	41.4	55.9	> 100		> 100												
Cc1nc(-[n+]2nc(-c3ccncc3)nn2-c2ccccc2)sc1C		> 100 µM		> 100	> 100	99.1	> 100	> 100	41	> 100										
CC1=C(C(=O)Nc2ccc(Cl)c(Cl)c2)C(c2cccc(Oc3ccccc3)c2)NC(=O)N1 (stereo not drawn)	32.8	17 µM	17	19.7		> 50	17.9	> 50	14.3	16.3	4.94 µM	8.07	7.75	8.72 µM		20.7 µM	5.68	15.9 µM	4.23 µM	6.15 µM
COC(=O)[C@@H](C)C[C@H](Cc1ccccc1)NC(=O)c1csc([C@@H](C[C@H](C(C)C)N(C)C(=O)[C@@H](NC(=O)[C@H]2CCCCN2C)C2CCCCC2)OC(C)=O)n1	> 25	0.0131 µM and 0.0115 µM		> 25	> 25	> 25		22.2			0.000321 µM and 0.0025 µM			0.000296 µM and 0.0025 µM	0.00079 µM and 0.0025 µM	0.0181 µM and 0.0025 µM		0.00103 µM and 0.0025 µM	0.000701 µM and 0.0025 µM	0.00115 µM and 0.0025 µM
CCOP(=O)(OCC)OC1C=CC2CCC1C2 (stereo not drawn)	> 100	> 100 µM	> 100	> 100	> 100	> 100	> 100	> 100												
O=C1OCC2C1C1c3ccccc3C(O)c3ccccc3C21 (stereo not drawn)	> 100	> 100 µM	> 100	> 100	> 100	> 100	> 100	> 100												
O=C(Nc1ccc(F)cc1)c1cc(S(=O)(=O)Nc2nc3ccccc3o2)c(SCc2ccccc2)cc1Cl	43.5	31.9 µM	28.1	33.9	36.9	31.5		56.9	38.9	29.5	19.1 µM	17.9	14.8	17.5 µM	19.5 µM	16.4 µM		24.3 µM	18.5 µM	14.5 µM
C=C1C(=O)OC2CC(C)C3(O)CCC(=O)C3(C)CC12 (stereo not drawn)		> 100 µM	46.5	42.6	> 100	99.1	71.5	84.3	> 100	> 100										
